Test [1] has as its target full-length human HPK1 (MAP4K1) (Homo sapiens (Human), UniProt Q92918). The test can be described thus: HPK1 Kinase Assay (Biochemical Assay), ADP-Glo. Particulars: GST-HPK1 3.2 nM, 10 μM ATP, MBP substrate, read-out: HPK1 enzymatic IC50. The source says: HPK1 Kinase Assay (Biochemical Assay).
A recombinant fusion protein consisting of full-length human HPK1 (MAP4K1) with an N-terminal Glutatione S-transferase (GST) tag was produced in insect cells Sf21 using the baculovirus expression system. GST-HPK1 protein was purified from cell lysates by glutathione Sepharose affinity chromatography. The assay is run in three continuous steps: 1) the HPK1 enzymatic kinase reaction, 2) an ATP depletion, and 3) the ADP detection, the steps 2 and 3 are performed with ADP-Glo™ Kinase Assay kit from Promega (V9101). Test compounds were prepared by 10-point serial dilution in dimethyl sulfoxide (DMSO) and 100 nL of each dilution was spotted onto a 384-well Optiplate (Perkin Elmer and Cat #6007299) by Labcyte Echo. 5 μL kinase reaction buffer (0.02% Brij-35, 2 mM DTT, 50 mM HEPES pH 7.5, MgCl2 10 mM, BSA 0.01% and O-glycerophosphate 12.5 mM) containing HPK1 (3.2 nM) enzyme was transferred to each well and incubated for 15 minutes at room temperature at 60% humidity. The enzymatic reaction was started by adding 5 μl of Start-Mix (10 μM ATP and 3.235 μM MBP). After 120 minutes, the reaction was stopped by adding 5 μL of ADP-Glo reagent (Promega, V9101) and incubating for 40 min. in the dark at 23° C. To determine the level of ADP, 10 μl ADP-Glo Detection solution was added and incubated for 1 hour at 23° C. in the dark. The plate was transferred to a Perkin Elmer EnVision (2104 Multilabel Reader) for luminescence detection and percent inhibition activity and IC50 value were determined using Genedata Screener.
(In general: In ADP-Glo the light output rises with the ADP produced.)

The target of test [2] is HPK1 (SLP76 phosphorylation at Ser376 in Jurkat and EL-4 cells) (Homo sapiens, UniProt Q92918). It is filed as cell-based. Particulars: αCD3/αCD28 Dynabeads stimulated cells, pSLP76 (Ser376) detection; read-out: HPK1 pSLP76 IC50. Here is the method:
Cellular Assay—Phospho-SLP-76 (Ser376).
Inhibition of HPK1 enzymatic activity in cells was determined by detection of SLP76 phosphorylation at Ser376 residue in lysate from Jurkat (human) and EL-4 (mouse) cells. Jurkat and EL-4 cells express both HPK1 and SLP76 naturally. All cells were cultured in RPMI 1640 media containing 10% heat inactivated fetal bovine serum (FBS) and 1×Penicillin-Streptomycin. In either Jurkat or El-4 assay, cells were pre-incubated with test compounds prior to T cell stimulation by respective αCD3/αCD28 Dynabeads™. For detection, plates were read on the Envision and percent inhibition and IC50 were determined by Smart fit in Genedata Analyzer.
For Jurkat cells: 35 μL cell suspension were dispensed at a density of 30,000 cells/well in 384-well plates containing HBSS (Gibco, 14025076)+0.1% BSA). 10-point logarithmic serial dilution of test compounds in DMSO were prepared by a Hamilton automated liquid handling robot and 35 nL was transferred into each well by an Echo liquid handler. After 60 min. pre-incubation, the cells were stimulated by adding 5 μL human T activator αCD3/αCD28 Dynabeads™ (Gibco, 11132D) at 1.2×107 beads/mL for 15 minutes at 37° C. Detection of Ser376 phosphorylation status was accomplished by first adding 10 μL of 5×AlphaLISA lysis buffer (Perkin Elmer, ALSU-PSLP-A500) to each well of the cell plate using a Multidrop Combi (5840300), followed by 20 minutes shaking. 10 μL cell lysate from each treatment were then transferred to a white 384-well plate (Corning 3572) and incubated with AlphaLISA acceptor beads for one hour (AlphaLISA SureFire Ultra p-SLP76(Ser376), Perkin Elmer, ALSU-PSLP-A500), and donor beads for additional 2 hours at room temperature in the dark.
For EL-4.IL2 assay, 50 μL cell suspension at 2×10^6 cells/mL in HBSS were first dispensed into 384-well plates and then 50 nL serial dilutions of test compounds were spotted to each well by an Echo liquid handler. After 60 min. incubation at 37° C., cells were stimulated by adding 5 μL mouse T cell activator αCD3/αCD28 Dynabeads™ (ThermFisher Scientific, 11452D) for 30 minutes at 37° C. After a brief spin and subsequent supernatant discarded, 12.5 μL of Cisbio lysis buffer were added to each well and plates were shaken for 30 min at 450 RPM. For detection, 4 μL prepared HTRF antibody mixture (Cisbio, 63ADK000U) in detection buffer were mixed with 16 μl of cell lysate and plates were incubated at room temperature for 19 hours prior to EnVision reading.

Chain of full-length human HPK1 (MAP4K1) (Q92918 whole entry, the tested form may be a part): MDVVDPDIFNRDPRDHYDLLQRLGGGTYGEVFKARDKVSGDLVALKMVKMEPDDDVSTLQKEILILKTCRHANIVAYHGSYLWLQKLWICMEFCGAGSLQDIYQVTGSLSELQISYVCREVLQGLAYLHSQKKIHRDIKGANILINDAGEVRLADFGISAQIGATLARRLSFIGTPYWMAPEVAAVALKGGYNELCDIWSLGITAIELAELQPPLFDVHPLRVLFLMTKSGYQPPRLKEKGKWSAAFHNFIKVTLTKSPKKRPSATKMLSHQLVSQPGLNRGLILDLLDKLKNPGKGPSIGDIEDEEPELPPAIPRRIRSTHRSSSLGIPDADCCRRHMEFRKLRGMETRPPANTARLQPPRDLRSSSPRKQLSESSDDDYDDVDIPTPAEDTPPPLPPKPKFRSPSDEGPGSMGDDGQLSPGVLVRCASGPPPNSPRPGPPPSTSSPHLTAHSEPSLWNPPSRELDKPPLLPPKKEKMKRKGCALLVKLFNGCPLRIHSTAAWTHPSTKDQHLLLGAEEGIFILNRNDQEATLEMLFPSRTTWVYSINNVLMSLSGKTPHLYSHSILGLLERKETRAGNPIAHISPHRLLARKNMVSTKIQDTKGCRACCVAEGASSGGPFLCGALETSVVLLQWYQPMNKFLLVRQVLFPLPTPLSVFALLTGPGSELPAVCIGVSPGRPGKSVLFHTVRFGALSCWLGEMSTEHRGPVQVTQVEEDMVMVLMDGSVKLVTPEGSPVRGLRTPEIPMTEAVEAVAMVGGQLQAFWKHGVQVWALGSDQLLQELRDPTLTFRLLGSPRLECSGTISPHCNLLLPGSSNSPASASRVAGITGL
Chain of HPK1 (SLP76 phosphorylation at Ser376 in Jurkat and EL-4 cells) (Q92918 whole entry, looked up): as the sequence (Q92918 whole entry, the tested form may be a part) above

Consider `Cc1c(N2CCc3cnc(Nc4cnc(CS(C)(=O)=O)c(Cl)c4)nc3C2)cnc2c1NCCO2` [Example 5, 5-chloro-6-(methanesulfonylmethyl)-N-(7-{8-methyl-1H,2H,3H-pyrido[2,3-b][1,4]oxazin-7-yl}-5H,6H,7H,8H-pyrido[3,4-d]pyrimidin-2-yl)pyridin-3-amine], for which the IC50 in test [1] was less than 100 nM; in test [2], more than 1000 nM.

Consider `Cc1c(N2CCc3cnc(Nc4ccc(NCCN5CCOCC5)c(F)c4)nc3C2)cnc2c1NCCO2` [Example 6, 2-fluoro-N4-(7-{8-methyl-1H,2H,3H-pyrido[2,3-b][1,4]oxazin-7-yl}-5H,6H,7H,8H-pyrido[3,4-d]pyrimidin-2-yl)-N1-[2-(morpholin-4-yl)ethyl]benzene-1,4-diamine], for which the concentration for half-maximal inhibition (IC50) is less than 100 nM in test [1] and less than 500 nM in test [2].

For `Cc1c(N2CCc3cnc(Nc4cc5n(n4)CC(=O)N(C(C)C)CC5)cc3C2)cnc2c1NCCO2` [Example 7, 2-[(6-{8-methyl-1H,2H,3H-pyrido[2,3-b][1,4]oxazin-7-yl}-5,6,7,8-tetrahydro-2,6-naphthyridin-3-yl)amino]-6-(propan-2-yl)-4H,5H,6H,7H,8H-pyrazolo[1,5-d][1,4]diazepin-7-one], the IC50 in test [1] is less than 100 nM; in test [2], less than 500 nM.

On to `Cc1cc(Nc2cc3c(cn2)CCN(c2cnc4c(c2C)NCCO4)C3)ccc1NC(=O)CN1CCC1` [Example 9, 2-(azetidin-1-yl)-N-{2-methyl-4-[(6-{8-methyl-1H,2H,3H-pyrido[2,3-b][1,4]oxazin-7-yl}-5,6,7,8-tetrahydro-2,6-naphthyridin-3-yl)amino]phenyl}acetamide], for which the IC50 in test [1] is less than 100 nM; in test [2] it was less than 500 nM.

Take `Cc1cc(Nc2ncc3c(n2)CN(c2cnc4c(c2C)NCCO4)CC3)ccc1NC(=O)CN1CCCC1` [Example 10, N-{2-methyl-4-[(7-{8-methyl-1H,2H,3H-pyrido[2,3-b][1,4]oxazin-7-yl}-5H,6H,7H,8H-pyrido[3,4-d]pyrimidin-2-yl)amino]phenyl}-2-(pyrrolidin-1-yl)acetamide]: the IC50 is less than 100 nM in test [1] and less than 500 nM in test [2].

For `Cc1c(N2CCc3cnc(Nc4ccc(NC(=O)CN5CCOCC5)cc4)nc3C2)cnc2c1NCCO2` [Example 12, N-{4-[(7-{8-methyl-1H,2H,3H-pyrido[2,3-b][1,4]oxazin-7-yl}-5H,6H,7H,8H-pyrido[3,4-d]pyrimidin-2-yl)amino]phenyl}-2-(morpholin-4-yl)acetamide], the IC50 in test [1] was less than 100 nM; in test [2], less than 500 nM.

With `Cc1c(N2CCc3cnc(Nc4ccc5c(c4)CNC5(C)C)nc3C2)cnc2c1NCCO2` [Example 13, 1,1-dimethyl-N-(7-{8-methyl-1H,2H,3H-pyrido[2,3-b][1,4]oxazin-7-yl}-5H,6H,7H,8H-pyrido[3,4-d]pyrimidin-2-yl)-2,3-dihydro-1H-isoindol-5-amine], the IC50 in test [1] is less than 100 nM; in test [2] it was less than 500 nM.

For `Cc1cc(Nc2cc3c(cn2)CCN(c2cnc4c(c2C)NCCO4)C3)ccc1NCCN(C)C` [Example 14, N1-[2-(dimethylamino)ethyl]-2-methyl-N4-(6-{8-methyl-1H,2H,3H-pyrido[2,3-b][1,4]oxazin-7-yl}-5,6,7,8-tetrahydro-2,6-naphthyridin-3-yl)benzene-1,4-diamine], the values for the IC50 in test [1] and in test [2] were less than 100 nM and less than 500 nM, respectively.

Take `Cc1cc(Nc2cc3c(cn2)CCN(c2cnc4c(c2C)NCCO4)C3)ccc1NCCN1CCOCC1` [Example 15, 2-methyl-N4-(6-{8-methyl-1H,2H,3H-pyrido[2,3-b][1,4]oxazin-7-yl}-5,6,7,8-tetrahydro-2,6-naphthyridin-3-yl)-N1-[2-(morpholin-4-yl)ethyl]benzene-1,4-diamine]: the IC50 in test [1] is less than 100 nM; in test [2], 500 to 1000 nM.

Take `Cc1cc(Nc2ncc3c(n2)CN(c2cnc4c(c2C)NCCO4)CC3)ccc1N(C)CCN1CCOCC1` [Example 17, N1,2-dimethyl-N4-(7-{8-methyl-1H,2H,3H-pyrido[2,3-b][1,4]oxazin-7-yl}-5H,6H,7H,8H-pyrido[3,4-d]pyrimidin-2-yl)-N1-[2-(morpholin-4-yl)ethyl]benzene-1,4-diamine; formic acid]: the IC50 in test [1] was less than 100 nM; in test [2] it was 500 to 1000 nM.

Turning to `Cc1c(N2CCc3cnc(Nc4ccc(C5(S(C)(=O)=O)CC5)nc4)nc3C2)cnc2c1NCCO2` [Example 18, 6-(1-methanesulfonylcyclopropyl)-N-(7-{8-methyl-1H,2H,3H-pyrido[2,3-b][1,4]oxazin-7-yl}-5H,6H,7H,8H-pyrido[3,4-d]pyrimidin-2-yl)pyridin-3-amine], the IC50 in test [1] was less than 100 nM; in test [2] it was 500 to 1000 nM.

Consider `Cc1c(N2CCc3cnc(Nc4cnc(CS(C)(=O)=O)c(F)c4)nc3C2)cnc2c1NCCO2` [Example 19, 5-fluoro-6-(methanesulfonylmethyl)-N-(7-{8-methyl-1H,2H,3H-pyrido[2,3-b][1,4]oxazin-7-yl}-5H,6H,7H,8H-pyrido[3,4-d]pyrimidin-2-yl)pyridin-3-amine], for which the figures for the IC50 in test [1] and in test [2] were less than 100 nM and less than 500 nM, respectively.

Regarding `Cc1c(N2CCc3cnc(Nc4ccc(C(C)(C)S(C)(=O)=O)nc4)nc3C2)cnc2c1NCCO2` [Example 20, 6-(2-methanesulfonylpropan-2-yl)-N-(7-{8-methyl-1H,2H,3H-pyrido[2,3-b][1,4]oxazin-7-yl}-5H,6H,7H,8H-pyrido[3,4-d]pyrimidin-2-yl)pyridin-3-amine], the IC50 in test [1] was less than 100 nM; in test [2] it was more than 1000 nM.

Turning to `Cc1cc(Nc2ncc3c(n2)CN(c2cnc4c(c2C)NCCO4)CC3)cnc1CS(C)(=O)=O` [Example 21, 6-(methanesulfonylmethyl)-5-methyl-N-(7-{8-methyl-1H,2H,3H-pyrido[2,3-b][1,4]oxazin-7-yl}-5H,6H,7H,8H-pyrido[3,4-d]pyrimidin-2-yl)pyridin-3-amine], the IC50 in test [1] is less than 100 nM; in test [2], 500 to 1000 nM.

On to `Cc1cc(Nc2ncc3c(n2)CN(c2cnc4c(c2C)NCCO4)CC3)ccc1NCCN1CCOCC1` [Example 23, 2-methyl-N4-(7-{8-methyl-1H,2H,3H-pyrido[2,3-b][1,4]oxazin-7-yl}-5H,6H,7H,8H-pyrido[3,4-d]pyrimidin-2-yl)-N1-[2-(morpholin-4-yl)ethyl]benzene-1,4-diamine], for which the IC50 in test [1] was less than 100 nM; in test [2], 500 to 1000 nM.

Take `Cc1c(N2CCc3cnc(Nc4ccc(S(C)(=O)=O)cc4)nc3C2)cnc2c1NCCO2` [Example 24, N-(4-methanesulfonylphenyl)-7-{8-methyl-1H,2H,3H-pyrido[2,3-b][1,4]oxazin-7-yl}-5H,6H,7H,8H-pyrido[3,4-d]pyrimidin-2-amine]: the IC50 was less than 100 nM in test [1] and 500 to 1000 nM in test [2].

For the molecule `Cc1c(N2CCc3cnc(Nc4ccc(OCS(C)(=O)=O)cc4)nc3C2)cnc2c1NCCO2` [Example 25, N-[4-(methanesulfonylmethoxy)phenyl]-7-{8-methyl-1H,2H,3H-pyrido[2,3-b][1,4]oxazin-7-yl}-5H,6H,7H,8H-pyrido[3,4-d]pyrimidin-2-amine], the IC50 in test [1] is less than 100 nM; in test [2], less than 500 nM.

Usually IC50 stands for the concentration needed to halve the response being measured.
